The record followed here is patent US8809539B2, “Dicarboxylic acid derivatives as S1P1 receptor agonists” (Bioprojet, priority 2007, dated 2014).

Assay [1] concerns the target T1, Edg1 (S1P1 receptor) (Homo sapiens, UniProt P21453).
T1 construct: expressed in transfected cells; host or cells: HEK 293 or CHOK1 (membranes)
Nature of the assay: GTP-γ-35S binding, agonist activity at Edg1 (S1P1). It counts as biochemical. The note with it: membranes of transfected HEK 293 or CHOK1 cells, [35S]GTP-γ-S; read-out: In-Vitro potency EC50 (nM) Edg1. From the text: Human S1P1-5 receptor subtypes were stably expressed in high levels in HEK 293 or CHOK1 cells following transfection with corresponding plasmid constructs. Although the native cells somewhat respond to S1P, the level of expression and responsiveness of the antibiotic-resistant transfected cell lines that were selected is much higher.
When cultivated cells reached 80% confluence, they were collected and, after lysis, cell membranes were collected by centrifugation and washed in buffer containing antiproteases.
GTP-γ-^35S binding was performed using ˜5 μg protein of cell membranes suspended in 50 mM tris-HCl pH 7.5 containing 10 mM MgCl2, 100 mM NaCl and 10 μM GDP. The radioligand was 0.025 nM [^35S] GTP-γ-S and non specific binding determined in the presence of 10 μM non-radioactive GTP-γ-S. S1P and receptor agonists enhance the specific binding whereas inverse agonists reduce it. The maximal stimulation elicited by S1P was taken as a reference to define full or partial agonism and calculate the intrinsic activity (i.a.) of compounds.

For assay [2], the target named is T2, Edg5 (Homo sapiens, UniProt O95136).
T2 construct: expressed in transfected cells; host or cells: HEK 293 or CHOK1 (membranes)
T2 sequence (O95136 whole entry): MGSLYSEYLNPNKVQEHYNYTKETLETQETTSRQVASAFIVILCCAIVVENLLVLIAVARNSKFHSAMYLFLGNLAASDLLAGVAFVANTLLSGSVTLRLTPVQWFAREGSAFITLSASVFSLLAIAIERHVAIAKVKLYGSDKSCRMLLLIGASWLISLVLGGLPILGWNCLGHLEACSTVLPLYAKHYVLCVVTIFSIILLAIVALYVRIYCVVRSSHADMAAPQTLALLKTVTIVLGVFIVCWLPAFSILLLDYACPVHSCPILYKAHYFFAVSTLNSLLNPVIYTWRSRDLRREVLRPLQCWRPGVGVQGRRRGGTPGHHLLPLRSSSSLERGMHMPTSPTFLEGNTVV
Nature of the assay: GTP-γ-35S binding, agonist activity at Edg5. It counts as biochemical. The settings on record: membranes of transfected HEK 293 or CHOK1 cells, [35S]GTP-γ-S; read-out: In-Vitro potency EC50 (nM) Edg5. From the text: (§1) Human S1P1-5 receptor subtypes were stably expressed in high levels in HEK 293 or CHOK1 cells following transfection with corresponding plasmid constructs. Although the native cells somewhat respond to S1P, the level of expression and responsiveness of the antibiotic-resistant transfected cell lines that were selected is much higher. When cultivated cells reached 80% confluence, they were collected and, after lysis, cell membranes were collected by centrifugation and washed in buffer containing antiproteases. GTP-γ-^35S binding was performed using ˜5 μg protein of cell membranes suspended in 50 mM tris-HCl pH 7.5 containing 10 mM MgCl2, 100 mM NaCl and 10 μM GDP. The radioligand was 0.025 nM [^35S] GTP-γ-S and non specific binding determined in the presence of 10 μM non-radioactive GTP-γ-S. S1P and receptor agonists enhance the specific binding whereas inverse agonists reduce it. The maximal stimulation elicited by S1P was taken as a reference to define full or partial agonism and calculate the intrinsic activity (i.a.) of compounds.

Assay [3] addresses T3, Edg3 (S1P3 receptor) (Homo sapiens, UniProt Q99500).
T3 construct: expressed in transfected cells; host or cells: HEK 293 or CHOK1 (membranes)
Description: GTP-γ-35S binding, agonist activity at Edg3 (S1P3). The settings on record: membranes of transfected HEK 293 or CHOK1 cells, [35S]GTP-γ-S; read-out: In-Vitro potency EC50 (nM) Edg3. It counts as biochemical.
From the text: as §1
(In general: GTPγS is a poorly hydrolysed GTP analogue; its binding reports G protein activation.)

The subject of assay [4] is blood lymphocytes (S1P1 receptors in vivo). Description: Lymphopenia in vivo after oral administration. The settings on record: Swiss mice; for ED50: Mus musculus, Lymphocyte, at 24 h. As for the experimental part:
Lymphopenia was assessed in vivo. Experiments were done in Swiss mice strain (n=5 per condition). Compounds were administered orally in suspension in methyl-cellulose 1% from 1 h 30 until 48 hours before the experiments. Blood was taken on anesthetized animal (4% isoflurane) and samples collected in EDTA-containing vacuum tubes. After 5 minutes stirring, cells were counted using ABC vet hemocytometer (Scil vet animal Care)

T1 sequence (P21453 whole entry): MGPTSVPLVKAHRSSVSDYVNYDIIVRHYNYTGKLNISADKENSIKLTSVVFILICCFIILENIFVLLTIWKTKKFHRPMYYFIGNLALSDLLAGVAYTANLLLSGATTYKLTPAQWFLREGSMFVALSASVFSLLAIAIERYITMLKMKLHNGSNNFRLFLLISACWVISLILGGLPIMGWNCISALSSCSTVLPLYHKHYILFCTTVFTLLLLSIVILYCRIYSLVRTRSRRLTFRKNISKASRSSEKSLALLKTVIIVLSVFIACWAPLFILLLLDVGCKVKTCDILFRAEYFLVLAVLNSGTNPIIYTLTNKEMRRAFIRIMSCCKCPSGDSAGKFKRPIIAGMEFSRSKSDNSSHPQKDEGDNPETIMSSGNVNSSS
T3 sequence (Q99500 whole entry): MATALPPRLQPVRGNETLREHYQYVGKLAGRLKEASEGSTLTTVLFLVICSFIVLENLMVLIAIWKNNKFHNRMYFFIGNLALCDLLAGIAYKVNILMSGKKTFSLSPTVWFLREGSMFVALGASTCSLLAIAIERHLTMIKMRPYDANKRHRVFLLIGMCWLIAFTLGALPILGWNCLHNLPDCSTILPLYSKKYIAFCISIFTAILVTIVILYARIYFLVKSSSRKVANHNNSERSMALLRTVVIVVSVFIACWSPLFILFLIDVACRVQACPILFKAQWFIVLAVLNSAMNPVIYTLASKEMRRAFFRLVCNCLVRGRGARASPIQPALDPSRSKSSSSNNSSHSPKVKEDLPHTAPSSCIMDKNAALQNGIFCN

For the compound `C=C(C)[C@@H]1CC=C(c2nc(-c3ccc(CN4CCC(C(=O)O)(C(=O)O)CC4)cc3)no2)CC1` [Example 25], the half-maximal effective concentration (EC50) in assay [1] turned out to be 1.7 nM.
`CO/N=C(/c1ccco1)c1nc(-c2ccc(CN3CCC(C(=O)O)(C(=O)O)CC3)cc2)no1` [Example 22]: the figures for the concentration for a half-maximal effect (EC50) in assay [1], in assay [2] and in assay [3] were 2.2 nM, over 1000 nM and over 1000 nM, respectively.
For the compound `O=C(O)C1(C(=O)O)CCN(Cc2ccc(-c3noc(-c4ccc(-c5ccccc5)cc4)n3)cc2)CC1` [Example 15], the 50% effective concentration (EC50) was 0.7 nM in assay [1], over 1000 nM in assay [2] and over 1000 nM in assay [3].
`COC(=O)C1(C(=O)O)CCN(Cc2ccc(-c3noc(-c4ccc(CC(C)C)cc4)n3)cc2)CC1` [Example 8] registered an ED50 in assay [4] of 3.5 mg/kg.
As to `CC(C)(C)C(=O)COC(=O)C1(C(=O)O)CCN(Cc2ccc(-c3noc(-c4ccc(-c5ccccc5)c(F)c4)n3)cc2)CC1` [Example 62, 1-{4-[5-(2-fluorobiphenyl-4-yl)[1,2,4]oxadiazol-3-yl]benzyl}-piperidine-4,4-dicarboxylic acid (3,3-dimethyl-2-oxobutyl)ester], the EC50 in assay [1] was 6.3 nM. In assay [4], this compound came in with an ED50 of 0.03 mg/kg.
As to `Cl.O=C(O)C1(C(=O)O)CC(NCc2ccc(-c3noc(-c4ccc(-c5ccccc5)c(F)c4)n3)cc2)C1` [Example 49], the “% lymphopenia” value in assay [4] (at 10 mg/kg, after 24 h) is reported as “at 10 mg/kg 86% lymphopenia after 24 h”.
On to `COC(=O)C1(C(=O)O)CC(N(C)Cc2ccc(-c3noc(-c4ccc(CC(C)C)cc4)n3)cc2)C1` (single isomer, unassigned) [Example 54], for which the concentration for a half-maximal effect (EC50) in assay [1] turned out to be 11.8 nM.

What is called EC50 is the midpoint of the concentration-response curve. The ED50 is the dose that gives a 50% effect, or the effect in half of the subjects.
